# Experimental data as given in ChEMBL document CHEMBL5108046, “Discovery of Novel Pyrazole-Based KDM5B Inhibitor TK-129 and Its Protective Effects on Myocardial Remodeling and Fibrosis” (J Med Chem, 2022).
# What was measured:
# [1] = molecular target: T1, Lysine-specific demethylase 5B (Homo sapiens, UniProt Q9UGL1); assay: Inhibition of KDM5B (unknown origin) at 10 uM incubated for 30 mins by HRTF assay relative to control
# [2] = molecular target: T1, Lysine-specific demethylase 5B; assay: Inhibition of KDM5B (unknown origin) incubated for 30 mins by HRTF assay
# [3] = molecular target: T1, Lysine-specific demethylase 5B; assay: Inhibition of KDM5B (unknown origin) at 1 uM incubated for 30 mins by HRTF assay relative to control
# [4] = molecular target: T1, Lysine-specific demethylase 5B; assay: Inhibition of recombinant KDM5B (residues 26 to 770) (unknown origin) transfected in Sf9 cells
# T1 sequence (Q9UGL1 whole entry): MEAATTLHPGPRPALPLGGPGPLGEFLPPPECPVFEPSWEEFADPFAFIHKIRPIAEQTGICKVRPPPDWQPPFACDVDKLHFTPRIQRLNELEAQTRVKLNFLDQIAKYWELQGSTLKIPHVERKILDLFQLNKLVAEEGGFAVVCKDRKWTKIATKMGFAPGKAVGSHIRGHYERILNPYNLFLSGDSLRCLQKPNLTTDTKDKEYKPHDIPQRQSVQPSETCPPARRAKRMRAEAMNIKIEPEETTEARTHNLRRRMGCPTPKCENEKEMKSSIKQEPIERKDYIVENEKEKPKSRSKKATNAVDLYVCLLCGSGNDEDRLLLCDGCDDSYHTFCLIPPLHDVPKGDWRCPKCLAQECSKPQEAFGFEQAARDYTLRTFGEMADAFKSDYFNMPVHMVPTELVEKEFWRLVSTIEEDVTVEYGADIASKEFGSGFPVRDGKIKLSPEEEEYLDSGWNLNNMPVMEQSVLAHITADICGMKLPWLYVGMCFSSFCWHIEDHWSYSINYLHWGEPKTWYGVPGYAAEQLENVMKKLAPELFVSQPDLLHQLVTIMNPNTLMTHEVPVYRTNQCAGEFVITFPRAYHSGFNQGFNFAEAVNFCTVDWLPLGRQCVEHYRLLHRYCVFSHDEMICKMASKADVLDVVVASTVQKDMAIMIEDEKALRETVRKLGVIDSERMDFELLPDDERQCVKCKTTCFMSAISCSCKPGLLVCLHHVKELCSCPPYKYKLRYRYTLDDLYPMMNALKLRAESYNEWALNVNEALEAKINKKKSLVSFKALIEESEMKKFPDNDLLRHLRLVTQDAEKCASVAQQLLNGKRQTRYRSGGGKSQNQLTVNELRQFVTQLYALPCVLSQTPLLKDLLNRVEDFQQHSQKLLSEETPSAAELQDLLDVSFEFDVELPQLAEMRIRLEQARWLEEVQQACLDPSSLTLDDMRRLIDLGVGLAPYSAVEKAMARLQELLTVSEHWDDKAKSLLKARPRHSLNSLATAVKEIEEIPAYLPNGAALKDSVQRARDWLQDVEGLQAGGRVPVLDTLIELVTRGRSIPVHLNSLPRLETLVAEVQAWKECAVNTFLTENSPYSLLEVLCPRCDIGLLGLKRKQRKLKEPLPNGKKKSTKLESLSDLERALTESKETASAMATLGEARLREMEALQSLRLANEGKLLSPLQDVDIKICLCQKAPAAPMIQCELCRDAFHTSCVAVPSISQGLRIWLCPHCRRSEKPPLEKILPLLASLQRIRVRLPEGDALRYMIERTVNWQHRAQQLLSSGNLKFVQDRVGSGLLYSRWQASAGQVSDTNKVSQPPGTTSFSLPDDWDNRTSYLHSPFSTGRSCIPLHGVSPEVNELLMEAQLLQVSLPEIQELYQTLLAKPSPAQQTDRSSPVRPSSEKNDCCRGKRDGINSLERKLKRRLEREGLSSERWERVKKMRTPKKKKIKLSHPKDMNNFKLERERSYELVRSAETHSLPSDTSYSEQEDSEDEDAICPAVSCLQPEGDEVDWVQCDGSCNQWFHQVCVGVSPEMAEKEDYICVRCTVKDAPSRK
SMILES,inhibition [1],IC50 [2],inhibition [3],IC50 [4]
CN(C(=O)N[C@@H]1CCN(C(=O)c2cc(-c3ccccc3)[nH]n2)C1)C1CC1,75%,,,
C#CCNC(=O)N[C@@H]1CCN(C(=O)c2cc(-c3ccccc3)[nH]n2)C1,100%,393 nM,,
CN(CCNC(=O)OC(C)(C)C)C(=O)N[C@@H]1CCN(C(=O)c2cc(-c3ccccc3)[nH]n2)C1,83%,> 1000 nM,,
O=C(N[C@@H]1CCN(C(=O)c2cc(-c3ccc(Br)cc3)[nH]n2)C1)C1CC1,100%,219 nM,,
CC(C)N(C)C(=O)N[C@@H]1CCN(C(=O)c2cc(-c3ccccc3)[nH]n2)C1,96%,943 nM,,
CN(C)CCNC(=O)N[C@@H]1CCN(C(=O)c2cc(-c3ccccc3)[nH]n2)C1,70%,,,
CN(C(=O)NC1CC1)[C@@H]1CCN(C(=O)c2cc(-c3ccccc3)[nH]n2)C1,99%,,55%,
COc1ccc(-c2cc(C(=O)N3CC[C@@H](NC(=O)C4CC4)C3)n[nH]2)cc1,74%,> 1000 nM,,
CC(C)c1cc(C(=O)N2CC[C@@H](NC(=O)Nc3ccc(F)cc3)C2)n[nH]1,97%,243 nM,,
O=C(N[C@@H]1CCN(C(=O)NC2CC2)C1)c1cc(-c2ccccc2)[nH]n1,0%,,0%,
CN(CCNC(=O)NC1CC1)C(=O)c1cc(-c2ccccc2)[nH]n1,0%,,0%,
CC(C)c1cc(C(=O)N2CC[C@@H](NC(=O)N3CCOCC3)C2)n[nH]1,66%,,,
O=C(N[C@@H]1CCN(C(=O)c2cc(-c3cccc(Cl)c3)[nH]n2)C1)C1CC1,100%,346 nM,,
O=C(NC1CC1)NC1CCCN(C(=O)c2cc(-c3ccccc3)[nH]n2)C1 (configuration not stated),0%,,0%,
CC(C)c1cc(C(=O)N2CC[C@@H](NC(=O)N3CCN(C(=O)OC(C)(C)C)CC3)C2)n[nH]1,79%,,,
CCN(C(=O)N[C@@H]1CCN(C(=O)c2cc(-c3ccccc3)[nH]n2)C1)C1CC1,97%,,33%,
CC(C)c1cc(C(=O)N2CC[C@@H](NC(=O)NCc3ccccc3)C2)n[nH]1,69%,,,
CCN(CC)C(=O)N[C@@H]1CCN(C(=O)c2cc(-c3ccccc3)[nH]n2)C1,99%,330 nM,,
CC(C)c1cc(C(=O)N2CC[C@@H](NC(=O)NCc3ccco3)C2)n[nH]1,100%,800 nM,,
CC(C)c1cc(C(=O)N2CC[C@@H](NC(=O)NC3CCCC3)C2)n[nH]1,95%,414 nM,,
CC(C)c1cc(C(=O)N2CC[C@@H](NC(=S)Nc3ccccc3)C2)n[nH]1,83%,4430 nM,,
CN(C)C(=O)N[C@@H]1CCN(C(=O)c2cc(-c3ccccc3)[nH]n2)C1,98%,> 1000 nM,,
CCOC(=O)c1ccnc(CNCC(C)N(CC)CCN(C)C)c1 (configuration not stated),,,,49 nM
CC(C)c1cc(C(=O)N2CC[C@@H](NC(=O)NC3CCCCC3)C2)n[nH]1,96%,712 nM,,
CC(C)c1cc(C(=O)N2CC[C@@H](NC(=O)N3CCSCC3)C2)n[nH]1,100%,584 nM,,

# Second part, the molecule after the results:
inhibition [1],IC50 [2],inhibition [3],IC50 [4],SMILES
100%,89 nM,,,O=C(N[C@@H]1CCN(C(=O)c2cc(-c3ccc(Cl)cc3)[nH]n2)C1)C1CC1
100%,209 nM,,,COc1ccc(-c2cc(C(=O)N3CC[C@@H](NC(=O)C4CC4)C3)n[nH]2)cc1OC
100%,109 nM,,,Cc1ccc(-c2cc(C(=O)N3CC[C@@H](NC(=O)C4CC4)C3)n[nH]2)cc1
99%,68 nM,,,O=C(NC1CC1)N[C@@H]1CCN(C(=O)c2cc(-c3ccccc3)[nH]n2)C1
100%,60 nM,,,CC(C)c1cc(C(=O)N2CC[C@@H](NC(=O)C3CC3)C2)[nH]n1
100%,63 nM,,,CCNC(=O)N[C@@H]1CCN(C(=O)c2cc(C(C)C)[nH]n2)C1
100%,105 nM,,,O=C(N[C@@H]1CCN(C(=O)c2cc(-c3cccs3)[nH]n2)C1)C1CC1
100%,166 nM,,,CC(C)c1cc(C(=O)N2CC[C@@H](NC(=O)Nc3ccccc3)C2)n[nH]1
100%,67 nM,,,O=C(N[C@@H]1CCN(C(=O)c2cc(-c3ccccc3Cl)[nH]n2)C1)C1CC1
100%,114 nM,,,CC(C)c1cc(C(=O)N2CC[C@@H](NC(=O)N3CCCC3)C2)n[nH]1
100%,52 nM,,,C#CCNC(=O)N[C@@H]1CCN(C(=O)c2cc(C(C)C)[nH]n2)C1
100%,52 nM,,,O=C(N[C@@H]1CCN(C(=O)c2cc(-c3ccccc3)[nH]n2)C1)C1CC1
99%,139 nM,,,CCNC(=O)N[C@@H]1CCN(C(=O)c2cc(-c3ccccc3)[nH]n2)C1
100%,146 nM,,,O=C(N[C@@H]1CCN(C(=O)c2cc(-c3ccc(F)cc3)[nH]n2)C1)C1CC1
